Experimental data reported in patent US6534079B1, “Passive space insect repellant strip” (priority 1999, dated 2003).

Legend:
[1] = system: Aedes Aegypti female mosquitoes; experiment: Knockdown efficacy against mosquitoes in glass chamber; type: in vivo; conditions: for pest or weed control at 5 mg/strip: Aedes aegypti, 24 h, read-out: Dead (%); for KD50 / KD80 / Dead (%): Barex strips coated with 5 mg of each active; for KD50 / KD80: 20 min test period; for knockdown / biological activity in glass chamber (in words): fresh samples, 5 mg, 20 minute test period; for Dead (%): 24 hours post treatment
Description: Markings were made to identify the side to be treated with the active. Markings were also made to leave one inch spacing on either ends 12 and 14 of the strip 10 to enable handling. Intermediate solutions of the active in organic solvents were prepared. A micropipettor, calibrated to transfer a known amount of intermediate solution on to the strip, was used to dose the strip with the active. The solution, after transferring onto the strip 10, was made to wet a 2 inch by 8 inch area 16 between ends 12 and 14, and allowed to sit on the bench top until most of the solvent evaporated and the strips appeared dry (which took 15 minutes to 30 minutes). Strips 10 were then either folded twice and held together with a metal clip and kept in a glass jar or were wrapped in aluminum foil and kept in a sealed plastic bag. These were then stored in the refrigerator at −10° C. until further use.
A Glass chamber (0.75 m×0.75 m×0.75 m) was used for the test and was maintained at 80° F. and 50% relative humidity. Three treated strips were placed on a card board tray covered with an aluminum foil and then transferred to the glass chamber. The strips were exposed in the chamber for three minutes to allow insecticide vapors build-up in the enclosed air. Strips were then quickly removed, folded and stored in the refrigerator. Ten laboratory-cultured adult Aedes Aegypti female mosquitoes were released into the chamber. […] After 20 minutes of exposure, all mosquitoes were collected and placed in a container with sucrose pad. […] KD50, KD80, and % Dead values of the tests were obtained for analysis. KD50 and KD80 are defined as the time taken for 50% and 80% of the mosquitoes to get knocked down and % Dead is simply the percentage of mosquitoes that are dead after 24 hour period. The glass chamber was then dismantled and thoroughly wiped with soap solution to remove contamination of the active. The walls were then wiped with a paper towel and allowed to dry before assembling again for the next run.

[2] = Release of active in wind tunnel (residual analysis); type: physicochemical; conditions: for % Evap Barex: 5 mg transfluthrin coated on Barex (103 sq. cm.) from the named solvent; for % Evap Filter Paper: 5 mg transfluthrin coated on filter paper (103 sq. cm.) from the named solvent
From the text: A computer controlled wind tunnel was custom designed using a fan 18 for drawing fresh air designated by arrows 20 past baffles 22 into a chamber 28 containing multiple strips 10 to determine the release of actives from these strips under controlled environmental conditions (see FIG. 2).
Preset wind velocities can be entered into the computer and maintained without operator's involvement during the testing period. Honey comb flow straighteners 24 and 26 were placed on either ends of the wind tunnel to obtain uniform velocity profiles. Strips 10 were placed on the floor of a 12 inch by 12 inch cross sectioned body in triplicates in a staggered fashion so as to equalize any possible errors that arise from spatial dependency of air velocity. All studies were carried out at a constant air flow rate of 2 meters per second as determined by a velocity probe 30 in chamber 28 and at an ambient temperature of 70° F. for 72 hours. The exhaust designated by arrows 32 of the wind tunnel was directly connected to the building ventilation duct to prevent Transfluthrin contamination of the lab. Strips 10 were removed at predetermined intervals and stored in the refrigerator for subsequent analytical or biological testing.
(§1) A validated analytical method was used to determine the residual level of active on the strips using gas chromatography. All samples were analyzed using this method to determine evaporation losses and release rates in the wind tunnel.

Culex quinquefasciatus = experiment: Field trials in living rooms, human bare-leg catch; type: in vivo; conditions: Malaysia field study
Description: Field trials against Culex quinquefasciatus were conducted in living rooms of residential houses in a squatter area at Ujung Batu, Butterworth on the Northwest peninsula of Malaysia on plastic strips coated with transfluthrin. […] A total of four configurations were tested.
Config. A 2 sheets hung together on each of four walls
Config. B 1 sheet hung on each four walls
Config. C 1 sheet hung on each two opposite walls
Config. D 1 sheet hung on a wall
The average volume of the rooms where the test is conducted is 75.5 cubic meters […]. The human baits were seated 1-2 meters away from all the treated sheets and the efficacy was evaluated using the human bare-leg catch technique during the first 0-2 hours, 24 hours, 96 hours, and 168 hours the placing of the test sheets in the rooms.
These tests were conducted under a rigorous test environment. The predominant species collected during the trials was Culex quinquefasciatus which are most tolerant to pyrethroid based household insecticide products among the common mosquitoes found in the living premises in tropical and subtropical regions globally. Due to the local weather changes, the squatter area chosen for the trials indicated lower indoor mosquito density during the pretreatment and treatment trials.

[3] = Residual analysis and release rate of large chamber samples; type: physicochemical
Description: as §1
The 8 hour aged strips were also sent to analytical for residual analysis. Results, as summarized in Table 18, indicate that the average release of transfluthrin during the 8 hour period is ˜0.2 mg/hr.
Lab studies were also conducted on a portable electric device where a corrugated disc was impregnated with 280 mg of transfluthrin. The disc was placed in a device which has a fan that runs on a battery. Air flows through the holes of the disc releasing the transfluthrin into the environment. Lab studies were conducted on this unit to determine its efficacy. […] Weight loss experiments were also conducted to determine the release rates from this unit.

In the case of Cc1c(F)c(F)c(COC(=O)[C@@H]2[C@H](/C=C(\Cl)C(F)(F)F)C2(C)C)c(F)c1F (racemic) [Tefluthrin], the pest or weed control at 5 mg/strip [1] is reported as 100%, the “KD50” value [1] is reported as 13.00 min and the “KD80” value [1] is reported as 16.67 min. The “KD50” value ([1]; listed as tefluthrin) was 13 min and the “knockdown / biological activity in glass chamber (in words)” value (“knockdown / biological activity” below) [1] was “relatively lower activity”.

For CCC(C)O (centres unmarked) [2-Butanol], the “% Evap Barex” value [2] was 60.3% and the “% Evap Filter Paper” value [2] was 67.1%.

For CC(C)=O [Acetone], the “% Evap Barex” value [2] was 58.3% and the “% Evap Filter Paper” value [2] was 57.7%.

In the case of C=CCC1=C(C)C(OC(=O)[C@@H]2[C@@H](C=C(C)C)C2(C)C)CC1=O (some centres unmarked) [Bioallethrin], the “KD50” value [1] is reported as greater than 20 min, the “KD80” value [1] is reported as greater than 20 min and the “Dead (%)” value [1] is reported as 0%. The “knockdown / biological activity” value [1] was “either minimal activity or no activity at all”.

For CC1(C)C(C=C(Cl)Cl)C1C(=O)OC(C#N)c1cccc(Oc2ccccc2)c1 (centres unmarked) [Cypermethrin], the pest or weed control at 5 mg/strip [1] was 0%, the “KD50” value [1] was greater than 20 min and the “KD80” value [1] was greater than 20 min. For the same compound, the “knockdown / biological activity” value [1] was “either minimal activity or no activity at all”.

With CCN(CC)C(=O)c1cccc(C)c1 [DEET] the “KD50” value [1] was greater than 20 min, the “KD80” value [1] was greater than 20 min and the “Dead (%)” value [1] was 0%. The “knockdown / biological activity” value [1] was “either minimal activity or no activity at all”.

With CC1(C)[C@H](C(=O)O[C@H](C#N)c2cccc(Oc3ccccc3)c2)[C@@H]1C=C(Br)Br [Deltamethrin] the pest or weed control at 5 mg/strip [1] was 20%, the “KD50” value [1] was greater than 20 min and the “KD80” value [1] was greater than 20 min. The “knockdown / biological activity” value [1] was “either minimal activity or no activity at all”.

For CCOP(=S)(OCC)Oc1nc(Cl)c(Cl)cc1Cl [Dursban], the pest or weed control at 5 mg/strip [1] was 0%, the “KD50” value [1] was greater than 20 min and the “KD80” value [1] was greater than 20 min. For the same compound, the “knockdown / biological activity” value [1] was “either minimal activity or no activity at all”.

For C#CCC1=C(C)C(OC(=O)C2C(C=C(C)C)C2(C)C)CC1=O (centres unmarked) [ETOC], the “KD50” value [1] was greater than 20 min, the “KD80” value [1] was greater than 20 min and the “Dead (%)” value [1] was 0%. The “knockdown / biological activity” value [1] was “either minimal activity or no activity at all”.

With CCO [Ethanol] the “% Evap Barex” value [2] was 70.3% and the “% Evap Filter Paper” value [2] was 45.0%.

In the case of CCOC(C)=O [Ethyl Acetate], the “% Evap Barex” value [2] is reported as 57.6% and the “% Evap Filter Paper” value [2] is reported as 61.1%.

For CC(C)C(C(=O)OC(C#N)c1cccc(Oc2ccccc2)c1)c1ccc(Cl)cc1 (centres unmarked) [Fenvalerate], the pest or weed control at 5 mg/strip [1] was 0%, the “KD50” value [1] was greater than 20 min and the “KD80” value [1] was greater than 20 min. The “knockdown / biological activity” value [1] was “either minimal activity or no activity at all”.

For CCCCCCC [Heptane], the “% Evap Barex” value [2] was 86.8% and the “% Evap Filter Paper” value [2] was 78.5%.

In the case of CC(C)O [IPA, isopropyl alcohol], the “% Evap Barex” value [2] is reported as 50.3% and the “% Evap Filter Paper” value [2] is reported as 49.0%.

For CC(=O)OCC(C)C [Isobutyl Acetate], the “% Evap Barex” value [2] was 70.9% and the “% Evap Filter Paper” value [2] was 63.8%.

For CCC(C)=O [MEK], the “% Evap Barex” value [2] was 67.5% and the “% Evap Filter Paper” value [2] was 62.4%.

With CO [Methanol] the “% Evap Barex” value [2] was 58.3% and the “% Evap Filter Paper” value [2] was 47.0%.

With COC(C)=O [Methyl Acetate] the “% Evap Barex” value [2] was 57.6% and the “% Evap Filter Paper” value [2] was 55.7%.

In the case of CC1(C)C(C=C(Cl)Cl)C1C(=O)OCc1cccc(Oc2ccccc2)c1 (centres unmarked) [Permanone], the “KD50” value [1] is reported as greater than 20 min, the “KD80” value [1] is reported as greater than 20 min and the “Dead (%)” value [1] is reported as 0%. The “knockdown / biological activity” value [1] was “either minimal activity or no activity at all”.

For CNC(=O)Oc1ccccc1OC(C)C [Propoxur], the “knockdown / biological activity” value [1] was “either minimal activity or no activity at all”.

For CC(C)=CC1C(C(=O)OCc2coc(Cc3ccccc3)c2)C1(C)C (centres unmarked) [Resmethrin], the pest or weed control at 5 mg/strip [1] was 10%, the “KD50” value [1] was greater than 20 min and the “KD80” value [1] was greater than 20 min. For the same compound, the “knockdown / biological activity” value [1] was “either minimal activity or no activity at all”.

With CC(C)=CC1C(C(=O)OCc2cccc(Oc3ccccc3)c2)C1(C)C (centres unmarked) [Sumithrin] the pest or weed control at 5 mg/strip [1] was 0%, the “KD50” value [1] was greater than 20 min and the “KD80” value [1] was greater than 20 min. The “knockdown / biological activity” value [1] was “either minimal activity or no activity at all”.

In the case of C1CCOC1 [THF], the “% Evap Barex” value [2] is reported as 59.6% and the “% Evap Filter Paper” value [2] is reported as 56.4%.

In the case of Cc1ccccc1 [Toluene], the “% Evap Barex” value [2] is reported as 60.9% and the “% Evap Filter Paper” value [2] is reported as 58.4%.

For CC1(C)[C@H](C=C(Cl)Cl)[C@H]1C(=O)OCc1c(F)c(F)cc(F)c1F [Transfluthrin, (IR-trans)-(2,3,5,6-tetrafluorophenyl)methyl 3-(2,2-dichoroethenyl)-2,2-dimethyl cyclopropane carboxylate], the “transfluthrin release rate sufficient to achieve practical control” value (Culex quinquefasciatus) was 0.18 mg/h, the “Transfluthrin loss in 8 hr” value ([3]; Barex strip on fan at 3.5 m/s) was 1.5 mg and the “Release rate of Transfluthrin” value ([3]; average during the 8 hour period, Barex strip on fan, listed as transfluthrin) was roughly 0.2 mg/h. For the same compound, the pest or weed control at 5 mg/strip [1] was 100%, the “KD80” value [1] was 6.83 min and the “knockdown / biological activity” value [1] was “highest activity”.

With C#CC(OC(=O)C1C(C=C(C)C)C1(C)C)/C(C)=C/CC (centres unmarked) [Vapothrin] the “KD50” value [1] was greater than 20 min, the “KD80” value [1] was greater than 20 min and the “Dead (%)” value [1] was 0%. For the same compound, the “knockdown / biological activity” value [1] was “either minimal activity or no activity at all”.
